Assay results reported in patent US11076595B2, “1-(n,n-disubstituted carbamoyl) 4-(substituted sulfonyl)triazolin-5-one derivative, 4-(n,n-disubstituted carbamoyl) 1-(substituted sulfonyl)triazolin-5-one derivative, and herbicide containing said derivative as active ingredient” (HOKKO CHEMICAL INDUSTRY CO., LTD., priority 2017, dated 2021).

How the values were obtained:
Type in all cases: in vivo
Echinochloa crus-galli [1] = assay: Test Example 11: herbicidal effect test by soil treatment in paddy field; conditions: 120 g/10a active ingredient, 14 days after treatment
Outline: (§1)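 Puddled paddy soil with N:P:K 17:17:17 fertilizer in Wagner pots; 30 seeds per species sown at 0–1 cm, flooded to about 3 cm, kept in a glass greenhouse. Water-diluted emulsifiable concentrate dripped in immediately after sowing at 120 g a.i. per 10 are. Suppression from dry weight versus untreated at 14 days.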

Lindernia pyxidaria [2] = assay: as above; conditions: 120 g/10a active ingredient, 14 days after treatment
Outline: as §1

Monochoria vaginalis [3] = assay: as above; conditions: 120 g/10a active ingredient, 14 days after treatment
Outline: as §1

Scirpus juncoides [4] = assay: as above; conditions: 120 g/10a active ingredient, 14 days after treatment
Outline: as §1

Echinochloa crus-galli [5] = assay: Test Example 12: herbicidal effect test by treatment during growing period in paddy field; conditions: 120 g/10a; treatment seven days after sowing in flooded paddy pot; assessed 14 days after treatment
Outline: (§2)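 Read-out: weed suppression (%) = (1 − treated/untreated mean dry weight) × 100, scored 14 days after treatment with two replications. Pots held puddled paddy soil, 30 seeds per species sown 0–1 cm, flooded ~3 cm. Post-emergence dropwise water application at 7 days after sowing, 120 g a.i./10 are.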

Lindernia pyxidaria [6] = assay: as above; conditions: 120 g/10a; treatment seven days after sowing in flooded paddy pot; assessed 14 days after treatment
Outline: as §2

Monochoria vaginalis [7] = assay: as above; conditions: 120 g/10a; treatment seven days after sowing in flooded paddy pot; assessed 14 days after treatment
Outline: as §2

Scirpus juncoides [8] = assay: as above; conditions: 120 g/10a; treatment seven days after sowing in flooded paddy pot; assessed 14 days after treatment
Outline: as §2

Amaranthus viridis [9] = assay: Test Example 13: herbicidal effect test by soil treatment in upland field; conditions: 120 g/10a, 14 days after treatment
Protocol: (§3) A pot having a size of 36 cm^2 was filled with field soil (alluvial soil) and after mixing the soil of the surface layer of 1 cm with 20 grains of each weed seed of crabgrass, Echinochloa crus-galli, Chenopodium album and Amaranthus viridis, the surface layer was pressed lightly. One day after the sowing, an emulsifiable concentrate prepared according to Formulation Example 15 by using the compound shown in Table 11 below was diluted with water, and the water-diluted formulation was sprayed on the soil surface at a ratio of 100 liter per 10 are. The application rate of the active ingredient, by conversion, corresponded to 120 g per 10 are. Fourteen Days after the formulation treatment, the herbicidal effect was evaluated by the same criteria as in Test Example 11.

Chenopodium album [10] = assay: as above; conditions: 120 g/10a, 14 days after treatment
Protocol: as §3

Echinochloa crus-galli [11] = assay: as above; conditions: 120 g/10a, 14 days after treatment
Protocol: as §3

crabgrass [12] = assay: as above; conditions: 120 g/10a, 14 days after treatment
Protocol: as §3

Chenopodium album [13] = assay: Test Example 14: herbicidal effect test by foliage treatment in upland field; conditions: 7 days after sowing, 120 g/10a, 14 days after treatment
Outline: (§4)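 Weeds sown 20 seeds each in alluvial field soil; 7 days after sowing, water-diluted emulsifiable concentrate sprayed at 100 L per 10 are, 120 g active ingredient per 10 are. Suppression rate (%) from dry weight versus untreated plots at 14 days, two replicates.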

crabgrass [14] = assay: as above; conditions: 7 days after sowing, 120 g/10a, 14 days after treatment
Outline: as §4

Amaranthus viridis [15] = assay: as above; conditions: 7 days after sowing, 120 g/10a, 14 days after treatment
Outline: as §4

Echinochloa crus-galli [16] = assay: as above; conditions: 7 days after sowing, 120 g/10a, 14 days after treatment
Outline: as §4

Structure (SMILES) | Weed suppression rate (%) Echinochloa crus-galli (Echinochloa crus-galli [1]) | Weed suppression rate (%) Lindemia pyxidaria (Lindernia pyxidaria [2]) | Weed suppression rate (%) Monochoria vaginalis (Monochoria vaginalis [3]) | Weed suppression rate (%) Scirpus juncoides (Scirpus juncoides [4]) | Weed suppression rate (%) Echinochloa crus-galli (Echinochloa crus-galli [5]) | Weed suppression rate (%) Lindemia pyxidaria (Lindernia pyxidaria [6]) | Weed suppression rate (%) Monochoria vaginalis (Monochoria vaginalis [7]) | Weed suppression rate (%) Scirpus juncoides (Scirpus juncoides [8]) | herbicidal effect, Amaranthus viridis (Amaranthus viridis [9]) | herbicidal effect, Chenopodium album (Chenopodium album [10]) | herbicidal effect, Echinochloa crus-galli (Echinochloa crus-galli [11]) | herbicidal effect, Crabgrass (crabgrass [12]) | herbicidal effect, Chenopodium album (Chenopodium album [13]) | herbicidal effect, Crabgrass (crabgrass [14]) | herbicidal effect, Amaranthus viridis (Amaranthus viridis [15]) | herbicidal effect, Echinochloa crus-galli (Echinochloa crus-galli [16])
CC(C)N(C(=O)n1cnn(S(C)(=O)=O)c1=O)c1ccccc1 [Compound 11-1] | 90% | 80% | 80% | 90% | 90% | 80% | 80% | 90% | 90% | 80% | 80% | 90% | 80% | 90% | 90% | 80%
CC(C)N(C(=O)n1cnn(S(C)(=O)=O)c1=O)c1cccc(F)c1F [Compound 11-11] | 100% | 100% | 100% | 100% | 100% | 80% | 100% | 100% | 30% | 30% | 80% | 90% | 70% | 100% | 60% | 100%
CC(C)N(C(=O)n1cnn(S(C)(=O)=O)c1=O)c1ccc(F)cc1F [Compound 11-12] | 100% | 100% | 100% | 100% | 100% | 100% | 90% | 90% | 100% | 90% | 100% | 100% | 90% | 90% | 80% | 90%
CC(C)N(C(=O)n1cnn(S(C)(=O)=O)c1=O)c1c(F)cccc1F [Compound 11-14] | 100% | 100% | 80% | 90% | 100% | 80% | 80% | 100% | 70% | 60% | 100% | 100% | 30% | 100% | 30% | 100%
CC(C)N(C(=O)n1cnn(S(C)(=O)=O)c1=O)c1c(F)cc(F)cc1F [Compound 11-16] | 100% | 100% | 90% | 90% | 100% | 90% | 100% | 100% | 100% | 70% | 100% | 100% | 70% | 100% | 30% | 100%
CC(C)N(C(=O)n1cnn(S(C)(=O)=O)c1=O)c1ccc(F)cc1Cl [Compound 11-19] | 90% | 80% | 80% | 90% | 90% | 80% | 80% | 90% | 90% | 80% | 80% | 90% | 80% | 90% | 90% | 80%
Cc1ccc(N(C(=O)n2cnn(S(C)(=O)=O)c2=O)C(C)C)c(F)c1 [Compound 11-26] | 90% | 80% | 80% | 90% | 90% | 80% | 80% | 90% | 90% | 80% | 80% | 90% | 80% | 90% | 90% | 80%
CC(C)N(C(=O)n1cnn(S(=O)(=O)Cc2ccccc2)c1=O)c1ccc(F)cc1F [Compound 11-944] | 90% | 100% | 100% | 90% | 90% | 90% | 90% | 90% | 0% | 0% | 90% | 90% |  |  |  | 
CC(C)N(C(=O)n1cnn(S(=O)(=O)c2cccs2)c1=O)c1cccc(F)c1F [Compound 11-1021] | 100% | 100% | 100% | 100% | 100% | 80% | 90% | 100% | 70% | 70% | 90% | 100% |  |  |  | 
CC(C)N(C(=O)n1cnn(S(=O)(=O)c2cccs2)c1=O)c1c(F)cccc1F [Compound 11-1024] | 100% | 80% | 70% | 80% | 100% | 80% | 90% | 90% | 60% | 60% | 70% | 100% |  |  |  | 
